Experimental data: article PMC3124589 (Biochimica et biophysica acta, 2011)
Entries after “also recorded” stand apart in the source; their conditions may differ. Where two headings read alike, the source gives them in different places.

Legend:
[1] = molecular target: T1, mtDAPDC (Mycobacterium tuberculosis, UniProt P9WIU7); assay: Steady-state coupled carbon dioxide assay, mtDAPDC; format: biochemical; settings: for kcat / Km: errors in parentheses; for Km: meso-DAP value corrected for the 50% D,L-DAP present
[2] = molecular target: T1, mtDAPDC; assay: Inhibition assay for mtDAPDC, coupled carbon dioxide assay; format: biochemical
[3] = molecular target: T1, mtDAPDC; assay: HPLC assay for reaction of mtDAPDC with alternate substrates; format: biochemical; settings: reaction 25 °C, 12–16 hours; OPA derivatization
[4] = tested on: yeast ODC; settings: read-out: concentration necessary for 50% inhibition; cited from earlier work
[5] = molecular target: S. cerevisiae ODC (Saccharomyces cerevisiae, UniProt P08432); assay: biochemical
[6] = D,L-DAP held at Km (400 μM), competitive inhibition assumed (eq 1)

T1 sequence (P9WIU7 whole entry, looked up): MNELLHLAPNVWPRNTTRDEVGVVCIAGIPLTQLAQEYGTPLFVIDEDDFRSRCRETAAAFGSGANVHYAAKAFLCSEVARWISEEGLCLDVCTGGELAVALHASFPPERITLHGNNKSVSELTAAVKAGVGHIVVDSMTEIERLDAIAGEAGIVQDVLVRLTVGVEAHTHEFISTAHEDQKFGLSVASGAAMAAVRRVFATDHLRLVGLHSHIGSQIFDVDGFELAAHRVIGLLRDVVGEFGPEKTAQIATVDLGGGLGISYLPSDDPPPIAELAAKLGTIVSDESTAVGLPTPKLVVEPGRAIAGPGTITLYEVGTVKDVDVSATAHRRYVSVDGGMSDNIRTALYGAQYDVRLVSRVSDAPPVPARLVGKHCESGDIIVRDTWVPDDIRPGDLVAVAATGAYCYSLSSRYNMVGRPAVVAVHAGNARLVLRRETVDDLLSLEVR
S. cerevisiae ODC, sequence (P08432 whole entry): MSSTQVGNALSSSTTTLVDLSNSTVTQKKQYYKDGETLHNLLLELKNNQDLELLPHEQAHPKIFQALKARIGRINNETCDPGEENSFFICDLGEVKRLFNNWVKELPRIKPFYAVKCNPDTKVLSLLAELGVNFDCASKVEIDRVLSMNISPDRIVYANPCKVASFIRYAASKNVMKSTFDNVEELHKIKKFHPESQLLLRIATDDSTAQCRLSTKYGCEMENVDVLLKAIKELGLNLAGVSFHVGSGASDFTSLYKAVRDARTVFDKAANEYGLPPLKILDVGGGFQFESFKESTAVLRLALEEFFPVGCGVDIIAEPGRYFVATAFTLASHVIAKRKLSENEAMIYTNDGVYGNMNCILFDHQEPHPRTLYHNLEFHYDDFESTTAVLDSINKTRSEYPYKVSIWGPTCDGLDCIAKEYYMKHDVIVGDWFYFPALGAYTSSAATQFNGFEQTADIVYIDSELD

SMILES	kcat [1]	Km [1]	decarboxylation detected by HPLC [3]	Ki [2, 6]	further results
N[C@H](CCC[C@@H](N)C(=O)O)C(=O)O [D,D-DAP]	1.8 (0.3) s^−1	17 mM	decarboxylated		kcat less than with the natural substrate ([1]; relative to D,L-DAP): 4 fold; kcat/KM lower than D,L-DAP ([1]; relative to D,L-DAP): ~ 100 fold; inhibition of the D,L-DAP reaction ([2]; at concentrations of 6 mM (data not shown)): no detectable inhibition
N[C@@H](CCC[C@H](N)C(=O)O)C(=O)O [D,L-DAP, D,L-diaminopimelate]	7.1 (0.1) s^−1	0.43 mM			
NCCCC[C@@H](N)C(=O)O [D-lysine]			decarboxylated	26 mM	
NC(CCCC(N)C(=O)O)C(=O)O [L,L-DAP]			no detectable amounts of their decarboxylation products; also recorded: not decarboxylated	1.6 mM	binding weaker than D,L-DAP ([2]; Ki compared with Km of D,L-DAP): ~ 4 fold
NCCCC[C@H](N)C(=O)O [L-lysine]			no detectable amounts of their decarboxylation products		Ki [2]: 1.8 mM
NCCCCN [putrescine]					IC50 [4]: 0.1 mM; Ki [5]: 0.25 ± 0.045 mM
